# Values of other authors as cited in US20170151152A1, “COMBINATION OF N-ACETYL GLUCOSAMINE WITH ABSCISIC ACID AND USES THEREOF” (priority 2015, published 2017).
# Tested on: cell cultures
# Settings: 1%, 3%, 5% of 30 μL of NAG
smiles,measurement,value
"CC(=O)N[C@H]1C(O)O[C@H](CO)[C@@H](O)[C@@H]1O (stereo partly shown) [NAG, N-acetyl glucosamine]",melanin in cell cultures,dose dependent decrease in melanin
